Data set [1] can be described thus: Molar enthalpy of transition or fusion. The settings on record: Crystal; DSC.
For data set [2] the following is noted: Crystal.

SMILES strings stand for the structures. Numbers after ± are expanded uncertainties.

`CCOC(=O)Cc1c(C(=O)OCC)sc(N)c1C#N`: the “Molar enthalpy of transition or fusion” value in data set [1] was found to be 9.77 ± 0.263 kcal/mol. Besides, the mass density in data set [2] (298.15 K, 101.33 kPa, flotation method) is listed as 1297 ± 2 kg/m3. Further, the Normal melting temperature in data set [2] (DTA) is 136.90 ± 1.1 °C.

The values above are taken from the NIST ThermoML archive (doi:10.1016/j.jct.2015.11.025).
